The target in test [1] is FGFR2 (Homo sapiens (Human), UniProt P21802). The test is described as follows: FGFR Enzymatic Assay (FGFR2).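 Also: FRET read-out of peptide phosphorylation by the purified kinase, with enzyme-free blank and uninhibited enzyme as controls, potency from a variable-slope sigmoidal dose-response fit.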 It is filed as biochemical.
Test [2] has as its target FGFR3 enzyme (Millipore) (Homo sapiens (Human), UniProt P22607). The following applies: read-out: FGFR3 IC50, ATP 140 μM.
Description: (§1) The inhibitor potency of compounds was measured in an enzyme assay that measures peptide phosphorylation using FRET measurements to detect product formation. Inhibitors were serially diluted in DMSO and a volume of 0.5 μL was transferred to the wells of a 384-well plate. For FGFR3, a 10 μL volume of FGFR3 enzyme (Millipore) diluted in assay buffer (50 mM HEPES, 10 mM MgCl2, 1 mM EGTA, 0.01% Tween-20, 5 mM DTT, pH 7.5) was added to the plate and pre-incubated for 5-10 minutes. Appropriate controls (enzyme blank and enzyme with no inhibitor) were included on the plate. […] The plate was incubated at 25° C. for 1 hr. […] The plate was allowed to equilibrate for ˜1 hr before scanning the wells on a PheraStar plate reader.
(§2) GraphPad prism3 was used to analyze the data. The IC50 values were derived by fitting the data to the equation for a sigmoidal dose-response with a variable slope. Y=Bottom+(Top−Bottom)/(1+10^((Log IC50−X)*HillSlope)) where X is the logarithm of concentration and Y is the response.
Test [3] concerns the target FGFR1 (Homo sapiens (Human), UniProt P11362). The test is described as follows: FGFR Enzymatic Assay (FGFR1). The class given is biochemical. The following applies: enzyme 0.02 nM, ATP 210 μM.
Description: as §1, §2
The mark [4] stands for this setting: enzyme 0.01 nM, ATP 100 μM, read-out: FGFR2 IC50.

Drawing on US9745311B2, “Substituted pyrrolo[2,3-b]pyrazines as FGFR inhibitors” (Incyte Corporation, priority 2012, dated 2017), this text covers IC50 for 28 molecules.

Read-outs that look alike come from different tables or passages of the source.

Chain of FGFR1 (P11362 22-822): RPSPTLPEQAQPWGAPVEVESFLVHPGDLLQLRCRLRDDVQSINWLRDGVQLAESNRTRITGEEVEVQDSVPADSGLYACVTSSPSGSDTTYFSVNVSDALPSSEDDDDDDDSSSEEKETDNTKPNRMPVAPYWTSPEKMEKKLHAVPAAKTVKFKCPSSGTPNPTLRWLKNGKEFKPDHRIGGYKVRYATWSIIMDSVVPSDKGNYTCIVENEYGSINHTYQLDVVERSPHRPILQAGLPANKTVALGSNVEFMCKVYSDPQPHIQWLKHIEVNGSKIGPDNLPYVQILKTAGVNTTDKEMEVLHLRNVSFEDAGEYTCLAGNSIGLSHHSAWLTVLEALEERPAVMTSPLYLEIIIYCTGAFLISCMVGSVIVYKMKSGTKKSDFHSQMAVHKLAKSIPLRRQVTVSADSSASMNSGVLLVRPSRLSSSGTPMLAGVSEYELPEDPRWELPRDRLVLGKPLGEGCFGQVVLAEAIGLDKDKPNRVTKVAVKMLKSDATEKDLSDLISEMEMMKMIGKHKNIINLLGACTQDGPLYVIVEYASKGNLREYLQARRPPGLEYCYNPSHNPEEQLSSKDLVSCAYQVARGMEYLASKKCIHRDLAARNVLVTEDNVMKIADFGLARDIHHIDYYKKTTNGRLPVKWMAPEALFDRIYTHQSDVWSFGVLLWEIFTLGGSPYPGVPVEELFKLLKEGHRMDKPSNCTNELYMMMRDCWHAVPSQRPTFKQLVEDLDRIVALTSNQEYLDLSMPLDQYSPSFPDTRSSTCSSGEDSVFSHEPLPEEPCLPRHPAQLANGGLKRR
Chain of FGFR2 (P21802 22-821): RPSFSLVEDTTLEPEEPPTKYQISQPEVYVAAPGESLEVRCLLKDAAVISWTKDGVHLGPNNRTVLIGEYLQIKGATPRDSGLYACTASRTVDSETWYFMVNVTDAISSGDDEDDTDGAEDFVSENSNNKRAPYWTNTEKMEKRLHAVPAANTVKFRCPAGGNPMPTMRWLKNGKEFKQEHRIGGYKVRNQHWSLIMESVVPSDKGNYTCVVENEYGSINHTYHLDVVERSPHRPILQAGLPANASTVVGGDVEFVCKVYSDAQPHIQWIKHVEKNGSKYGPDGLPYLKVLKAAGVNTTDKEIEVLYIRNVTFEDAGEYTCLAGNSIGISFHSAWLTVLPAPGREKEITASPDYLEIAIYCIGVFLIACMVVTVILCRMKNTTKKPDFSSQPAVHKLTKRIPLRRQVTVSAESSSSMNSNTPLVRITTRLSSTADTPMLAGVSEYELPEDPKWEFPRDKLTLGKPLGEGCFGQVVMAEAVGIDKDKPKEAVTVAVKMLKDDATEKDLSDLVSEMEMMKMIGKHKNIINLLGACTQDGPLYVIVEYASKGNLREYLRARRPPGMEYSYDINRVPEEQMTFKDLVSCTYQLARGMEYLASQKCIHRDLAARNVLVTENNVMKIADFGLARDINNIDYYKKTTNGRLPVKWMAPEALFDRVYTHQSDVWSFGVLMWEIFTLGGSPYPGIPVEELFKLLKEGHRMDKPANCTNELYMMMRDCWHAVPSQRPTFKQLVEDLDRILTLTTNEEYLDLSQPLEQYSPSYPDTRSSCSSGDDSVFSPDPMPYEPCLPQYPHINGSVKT
Chain of FGFR3 enzyme (Millipore) (P22607 23-806): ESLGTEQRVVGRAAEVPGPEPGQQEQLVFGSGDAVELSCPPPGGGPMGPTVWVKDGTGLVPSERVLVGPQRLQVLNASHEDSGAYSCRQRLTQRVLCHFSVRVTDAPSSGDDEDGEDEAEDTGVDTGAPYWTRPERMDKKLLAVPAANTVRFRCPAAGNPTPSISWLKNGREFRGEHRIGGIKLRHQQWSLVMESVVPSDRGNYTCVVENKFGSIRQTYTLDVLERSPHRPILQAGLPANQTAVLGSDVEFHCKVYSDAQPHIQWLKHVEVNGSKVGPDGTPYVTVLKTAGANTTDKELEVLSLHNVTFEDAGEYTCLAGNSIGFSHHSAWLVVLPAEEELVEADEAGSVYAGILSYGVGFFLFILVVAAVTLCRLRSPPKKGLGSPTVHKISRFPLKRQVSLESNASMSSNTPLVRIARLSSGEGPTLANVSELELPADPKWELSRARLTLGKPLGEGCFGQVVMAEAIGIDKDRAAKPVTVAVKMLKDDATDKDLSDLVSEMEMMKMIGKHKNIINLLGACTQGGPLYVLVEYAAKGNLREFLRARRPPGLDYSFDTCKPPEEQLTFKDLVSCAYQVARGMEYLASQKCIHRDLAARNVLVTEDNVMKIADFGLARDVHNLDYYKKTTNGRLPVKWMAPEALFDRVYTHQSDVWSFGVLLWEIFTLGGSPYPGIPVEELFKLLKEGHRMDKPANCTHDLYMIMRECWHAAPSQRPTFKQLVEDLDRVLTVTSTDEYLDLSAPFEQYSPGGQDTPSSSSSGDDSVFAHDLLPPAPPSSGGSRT

For `COc1cc(CCc2cnc3[nH]c(-c4ccc(N5CCN(C)CC5)cc4)cc3n2)cc(OC)c1` [Example 1, 2-[2-(3,5-dimethoxyphenyl)ethyl]-6-[4-(4-methylpiperazin-1-yl)phenyl]-5H-pyrrolo[2,3-b]pyrazine], the IC50 in test [1] (setting [4]), in test [2] (class symbols) and in test [3] was under 100 nM each time.

As for `CCN1CCN(c2ccc(-c3cc4nc(CCc5cc(OC)cc(OC)c5)cnc4[nH]3)cc2)CC1` [Example 2, 2-[2-(3,5-dimethoxyphenyl)ethyl]-6-[4-(4-ethylpiperazin-1-yl)phenyl]-5H-pyrrolo[2,3-b]pyrazine], the IC50 in test [1] (setting [4]), in test [2] (class symbols) and in test [3] was under 100 nM throughout.

`COc1cc(CCc2cnc3[nH]c(-c4ccccc4)cc3n2)cc(OC)c1` [Example 3, 2-(3,5-dimethoxyphenethyl)-6-phenyl-5H-pyrrolo[2,3-b]pyrazine]: the IC50 in test [1] (setting [4]), in test [2] (class symbols) and in test [3] was under 100 nM in each case.

In the case of `COc1ccc(-c2cc3nc(CCc4cc(OC)cc(OC)c4)cnc3[nH]2)cc1` [Example 5, 2-[2-(3,5-dimethoxyphenyl)ethyl]-6-(4-methoxyphenyl)-5H-pyrrolo[2,3-b]pyrazine], the IC50 in test [1] (setting [4]), in test [2] (class symbols) and in test [3] was under 100 nM each time.

As to `COc1cc(CCc2cnc3[nH]c(-c4ccc(CN5CCCCC5)cc4)cc3n2)cc(OC)c1` [Example 11, 2-[2-(3,5-dimethoxyphenyl)ethyl]-6-[4-(piperidin-1-ylmethyl)phenyl]-5H-pyrrolo[2,3-b]pyrazine], the IC50 in test [1] (setting [4]), in test [2] (class symbols) and in test [3] was under 100 nM in each case.

`COCc1ccc(-c2cc3nc(CCc4cc(OC)cc(OC)c4)cnc3[nH]2)cc1` [Example 12, 2-[2-(3,5-dimethoxyphenyl)ethyl]-6-[4-(methoxymethyl)phenyl]-5H-pyrrolo[2,3-b]pyrazine]: the IC50 in test [1] (setting [4]), in test [2] (class symbols) and in test [3] was under 100 nM in each case.

Take `COc1cc(CCc2cnc3[nH]c(-c4ccc(CO)cc4)cc3n2)cc(OC)c1` [Example 13, (4-{2-[2-(3,5-dimethoxyphenyl)ethyl]-5H-pyrrolo[2,3-b]pyrazin-6-yl}phenyl)methanol]: the IC50 in test [1] (setting [4]), in test [2] (class symbols) and in test [3] was under 100 nM each time.

On to `COc1cc(CCc2cnc3[nH]c(-c4ccc(C(=O)O)cc4)cc3n2)cc(OC)c1` [Example 15, 4-{2-[2-(3,5-dimethoxyphenyl)ethyl]-5H-pyrrolo[2,3-b]pyrazin-6-yl}benzoic acid], for which the IC50 in test [1] (setting [4]), in test [2] (class symbols) and in test [3] was under 100 nM in each case.

`COc1cc(CCc2cnc3[nH]c(-c4cnc(N(C)C)nc4)cc3n2)cc(OC)c1` [Example 20, 5-{2-[2-(3,5-dimethoxyphenyl)ethyl]-5H-pyrrolo[2,3-b]pyrazin-6-yl}-N,N-dimethylpyrimidin-2-amine]: the IC50 in test [1] is 100 to 500 nM; in test [2] (numeric bounds) it was over 1000 nM; in test [3] it was under 100 nM.

As to `COc1cc(CCc2cnc3[nH]c(-c4ccc5c(c4)OCO5)cc3n2)cc(OC)c1` [Example 21, 6-(1,3-benzodioxol-5-yl)-2-[2-(3,5-dimethoxyphenyl)ethyl]-5H-pyrrolo[2,3-b]pyrazine], the IC50 in test [2] (numeric bounds) is over 2000 nM.

On to `COc1cc(CCc2cnc3[nH]c(-c4ccc(C5CCN(C)CC5)cc4)cc3n2)cc(OC)c1` [Example 22, 2-[2-(3,5-dimethoxyphenyl)ethyl]-6-[4-(1-methylpiperidin-4-yl)phenyl]-5H-pyrrolo[2,3-b]pyrazine], for which the IC50 in test [1] (setting [4]), in test [2] (class symbols) and in test [3] was under 100 nM throughout.

With `COc1cc(CCc2cnc3[nH]c(C4CCN(C)CC4)cc3n2)cc(OC)c1` [Example 24, 2-[2-(3,5-dimethoxyphenyl)ethyl]-6-(1-methylpiperidin-4-yl)-5H-pyrrolo[2,3-b]pyrazine], the IC50 in test [2] (numeric bounds) is over 2000 nM.

For the molecule `CNC(=O)c1cc2nc(CCc3cc(OC)cc(OC)c3)cnc2[nH]1` [Example 25, 2-[2-(3,5-dimethoxyphenyl)ethyl]-N-methyl-5H-pyrrolo[2,3-b]pyrazine-6-carboxamide], the IC50 in test [2] (numeric bounds) is over 2000 nM.

`COc1cc(CCc2cnc3[nH]c(C(=O)N(C)C)cc3n2)cc(OC)c1` [Example 26, 2-[2-(3,5-dimethoxyphenyl)ethyl]-N,N-dimethyl-5H-pyrrolo[2,3-b]pyrazine-6-carboxamide]: the IC50 was 500 to 2700 nM in test [1] (setting [4]) and over 2000 nM in test [2] (numeric bounds).

Regarding `CCN(CC)CC#Cc1cc2nc(CCc3cc(OC)cc(OC)c3)cnc2[nH]1` [Example 27, 3-{2-[2-(3,5-dimethoxyphenyl)ethyl]-5H-pyrrolo[2,3-b]pyrazin-6-yl}-N,N-diethylprop-2-yn-1-amine], the IC50 was 100 to 500 nM in test [1], over 2000 nM in test [2] (numeric bounds) and under 100 nM in test [3].

As for `CCN(CC)CCCc1cc2nc(CCc3cc(OC)cc(OC)c3)cnc2[nH]1` [Example 28, 3-{2-[2-(3,5-dimethoxyphenyl)ethyl]-5H-pyrrolo[2,3-b]pyrazin-6-yl}-N,N-diethylpropan-1-amine], the IC50 in test [2] (numeric bounds) was over 2000 nM.

As to `COc1cc(CCc2cnc3[nH]c(-c4cnn(CCN5CCOCC5)c4)cc3n2)cc(OC)c1` [Example 31, 2-[2-(3,5-dimethoxyphenyl)ethyl]-6-[1-(2-morpholin-4-ylethyl)-1H-pyrazol-4-yl]-5H-pyrrolo[2,3-b]pyrazine], the IC50 in test [1] (setting [4]), in test [2] (class symbols) and in test [3] was under 100 nM each time.

As to `COc1cc(CCc2cnc3[nH]c(-c4cnn(C5CCOCC5)c4)cc3n2)cc(OC)c1` [Example 32, 2-[2-(3,5-dimethoxyphenyl)ethyl]-6-[1-(tetrahydro-2H-pyran-4-yl)-1H-pyrazol-4-yl]-5H-pyrrolo[2,3-b]pyrazine], the IC50 in test [1] (setting [4]), in test [2] (class symbols) and in test [3] was under 100 nM throughout.

Regarding `COc1cc(CCc2cnc3[nH]c(-c4cnn(CC(C)(C)O)c4)cc3n2)cc(OC)c1` [Example 33, 1-(4-{2-[2-(3,5-dimethoxyphenyl)ethyl]-5H-pyrrolo[2,3-b]pyrazin-6-yl}-1H-pyrazol-1-yl)-2-methylpropan-2-ol], the IC50 in test [1] (setting [4]), in test [2] (class symbols) and in test [3] was under 100 nM in each case.

With `COc1cc(CCc2cnc3[nH]c(-c4cnn(CCN(C)C)c4)cc3n2)cc(OC)c1` [Example 34, 2-(4-{2-[2-(3,5-dimethoxyphenyl)ethyl]-5H-pyrrolo[2,3-b]pyrazin-6-yl}-1H-pyrazol-1-yl)-N,N-dimethylethanamine], the IC50 in test [1] (setting [4]), in test [2] (class symbols) and in test [3] was under 100 nM throughout.

Regarding `COc1cc(CCc2cnc3[nH]c(-c4cnn(C(CC#N)C5CCCC5)c4)cc3n2)cc(OC)c1` (stereo not shown) [Example 35, 3-cyclopentyl-3-(4-{2-[2-(3,5-dimethoxyphenyl)ethyl]-5H-pyrrolo[2,3-b]pyrazin-6-yl}-1H-pyrazol-1-yl)propanenitrile], the IC50 in test [1] (setting [4]), in test [2] (class symbols) and in test [3] was under 100 nM throughout.

As to `COc1cc(CCc2cnc3[nH]c(-c4cnn(C(C)CC#N)c4)cc3n2)cc(OC)c1` (stereo not shown) [Example 36, 3-(4-(2-(3,5-dimethoxyphenethyl)-5H-pyrrolo[2,3-b]pyrazin-6-yl)-1H-pyrazol-1-l)butanenitrile], the IC50 in test [1] (setting [4]), in test [2] (class symbols) and in test [3] was under 100 nM throughout.

In the case of `COc1cc(CCc2cnc3[nH]c(-c4cnn(C[C@H](C)O)c4)cc3n2)cc(OC)c1` [Example 39, (2S)-1-(4-{2-[2-(3,5-dimethoxyphenyl)ethyl]-5H-pyrrolo[2,3-b]pyrazin-6-yl}-1H-pyrazol-1-yl)propan-2-ol], the IC50 in test [1] (setting [4]), in test [2] (class symbols) and in test [3] was under 100 nM each time.

Consider `COc1cc(CCc2cnc3[nH]c(-c4cnn(CCN5CCC(O)CC5)c4)cc3n2)cc(OC)c1` [Example 40, 1-[2-(4-{2-[2-(3,5-dimethoxyphenyl)ethyl]-5H-pyrrolo[2,3-b]pyrazin-6-yl}-1H-pyrazol-1-yl)ethyl]piperidin-4-ol], for which the IC50 in test [1] (setting [4]), in test [2] (class symbols) and in test [3] was under 100 nM throughout.

Turning to `COc1cc(CCc2cnc3[nH]c(-c4cnn(CCN5CCCCC5)c4)cc3n2)cc(OC)c1` [Example 41, 2-[2-(3,5-dimethoxyphenyl)ethyl]-6-[1-(2-piperidin-1-ylethyl)-1H-pyrazol-4-yl]-5H-pyrrolo[2,3-b]pyrazine], the IC50 in test [1] (setting [4]), in test [2] (class symbols) and in test [3] was under 100 nM in each case.

With `COc1cc(CCc2cnc3[nH]c(-c4cnn(CC(=O)N5CCN(C)CC5)c4)cc3n2)cc(OC)c1` [Example 44, 2-(4-(2-(3,5-dimethoxyphenethyl)-5H-pyrrolo[2,3-b]pyrazin-6-yl)-1H-pyrazol-1-yl)-1-(4-methylpiperazin-1-yl)ethanone], the IC50 in test [1] (setting [4]), in test [2] (class symbols) and in test [3] was under 100 nM throughout.

Consider `COc1cc(CCc2cnc3[nH]c(-c4ccc(F)c(C#N)c4)cc3n2)cc(OC)c1` [Example 65, 5-(2-(3,5-Dimethoxyphenethyl)-5H-pyrrolo[2,3-b]pyrazin-6-yl)-2-fluorobenzonitrile], for which the IC50 in test [1] (setting [4]) and in test [3] was under 100 nM in each case.

As for `COc1cc(CCc2cnc3[nH]c(-c4ccc(N5CCN(C)CC5)c(C#N)c4)cc3n2)cc(OC)c1` [Example 72, 5-(2-(3,5-Dimethoxyphenethyl)-5H-pyrrolo[2,3-b]pyrazin-6-yl)-2-(4-methylpiperazin-1-yl)benzonitrile], the IC50 in test [1] (setting [4]) and in test [3] was under 100 nM in each case.

Usually IC50 stands for the concentration needed to halve the response being measured.
